Test results taken from ChEMBL document CHEMBL2434953, “Safe and easy route for the synthesis of 1,3-dimethyl-1,2,3-triazolium salt and investigation of its anticancer activities” (2013).

What was measured:
Type in all cases: functional
SNB-75 = assay: Growth inhibition of human SNB75 cells after 48 hrs by sulforhodamine B assay; settings: SNB-75, 48 h
SK-MEL-5 = assay: Growth inhibition of human SK-MEL-5 cells after 48 hrs by sulforhodamine B assay; settings: SK-MEL-5, 48 h
LOX IMVI = assay: Growth inhibition of human LOXIMVI cells after 48 hrs by sulforhodamine B assay
A549 = assay: Growth inhibition of human A549 cells after 48 hrs by sulforhodamine B assay; settings: A549, 48 h
HT-29 = assay: Growth inhibition of human HT-29 cells after 48 hrs by sulforhodamine B assay; settings: HT-29, 48 h
SF-295 = assay: Growth inhibition of human SF295 cells after 48 hrs by sulforhodamine B assay; settings: SF-295, 48 h
Malme-3M = assay: Growth inhibition of human MALME-3M cells after 48 hrs by sulforhodamine B assay
NCI-H23 = assay: Growth inhibition of human NCI-H23 cells after 48 hrs by sulforhodamine B assay; settings: NCI-H23, 48 h
SK-MEL-2 = assay: Growth inhibition of human SK-MEL-2 cells after 48 hrs by sulforhodamine B assay; settings: SK-MEL-2, 48 h
[1] = Growth inhibition of human HCC2998 cells after 48 hrs by sulforhodamine B assay; settings: HCC 2998, 48 h
SW-620 = assay: Growth inhibition of human SW620 cells after 48 hrs by sulforhodamine B assay; settings: SW-620, 48 h
COLO 205 = assay: Growth inhibition of human COLO205 cells after 48 hrs by sulforhodamine B assay; settings: COLO 205, 48 h
M14 = assay: Growth inhibition of human M14 cells after 48 hrs by sulforhodamine B assay; settings: M14, 48 h
UACC-257 = assay: Growth inhibition of human UACC257 cells after 48 hrs by sulforhodamine B assay; settings: UACC-257, 48 h
MDA-MB-435 = assay: Growth inhibition of human MDA-MB-435 cells after 48 hrs by sulforhodamine B assay; settings: MDA-MB-435, 48 h
HCT-116 = assay: Growth inhibition of human HCT116 cells after 48 hrs by sulforhodamine B assay; settings: HCT-116, 48 h
SK-MEL-28 = assay: Growth inhibition of human SK-MEL-28 cells after 48 hrs by sulforhodamine B assay; settings: SK-MEL-28, 48 h
NCI-H460 = assay: Growth inhibition of human NCI-H460 cells after 48 hrs by sulforhodamine B assay; settings: NCI-H460, 48 h
NCI-H522 = assay: Growth inhibition of human NCI-H522 cells after 48 hrs by sulforhodamine B assay; settings: NCI-H522, 48 h
HCT-15 = assay: Growth inhibition of human HCT15 cells after 48 hrs by sulforhodamine B assay; settings: HCT-15, 48 h
SNB-19 = assay: Growth inhibition of human SNB19 cells after 48 hrs by sulforhodamine B assay; settings: SNB-19, 48 h
SF-268 = assay: Growth inhibition of human SF268 cells after 48 hrs by sulforhodamine B assay; settings: SF-268, 48 h
HOP-62 = assay: Growth inhibition of human HOP62 cells after 48 hrs by sulforhodamine B assay; settings: HOP-62, 48 h
U-251 = assay: Growth inhibition of human U251 cells after 48 hrs by sulforhodamine B assay; settings: U-251, 48 h
NCI-H226 = assay: Growth inhibition of human NCI-H226 cells after 48 hrs by sulforhodamine B assay; settings: NCI-H226, 48 h
SF-539 = assay: Growth inhibition of human SF539 cells after 48 hrs by sulforhodamine B assay; settings: SF-539, 48 h
[2] = Growth inhibition of human EKVX cells after 48 hrs by sulforhodamine B assay
KM12 = assay: Growth inhibition of human KM12 cells after 48 hrs by sulforhodamine B assay; settings: KM12, 48 h
NCI-H322M = assay: Growth inhibition of human NCI-H322M cells after 48 hrs by sulforhodamine B assay

GI50 (SK-MEL-5): 0.38 µM
GI50 (A549): 0.32 µM
GI50 (HT-29): 1.14 µM
GI50 (NCI-H23): 0.62 µM
GI50 (SK-MEL-2): 1.57 µM
GI50 (SW-620): 1.15 µM
GI50 (COLO 205): 1.01 µM
GI50 (MDA-MB-435): 0.2 µM
GI50 (HCT-116): 0.68 µM
GI50 (SK-MEL-28): 1.61 µM
GI50 (NCI-H460): 0.3 µM
GI50 (NCI-H522): 1.41 µM
GI50 (HCT-15): 1.61 µM
GI50 (U-251): 1.27 µM
GI50 (NCI-H226): 0.51 µM
GI50 (NCI-H322M): 0.28 µM
SMILES: Cn1n[n+](C)c2c1C(=O)c1ccccc1C2=O
GI50 (SNB-75): 1.68 µM
GI50 (LOX IMVI): 0.5 µM
GI50 (SF-295): 1.05 µM
GI50 (Malme-3M): 0.15 µM
GI50 [1]: 1.24 µM
GI50 (M14): 0.68 µM
GI50 (UACC-257): 1.79 µM
GI50 (SNB-19): 1.59 µM
GI50 (SF-268): 0.95 µM
GI50 (HOP-62): 1.54 µM
GI50 (SF-539): 1.35 µM
GI50 [2]: 1.21 µM
GI50 (KM12): 0.79 µM
